From paper PMC2725430 (Journal of medicinal chemistry, 2009)

Experiments:
[1] = system: Huh7 ET cells
[2] = system: 2.2.15 cells; test: Cytotoxicity by neutral red dye uptake in 2.2.15 cells; type: cell-based; conditions: read-out: Cytotoxicity IC50; 2.2.15 cells, neutral red dye uptake
[3] = system: wild type HBV; test: HBV antiviral assay in 2.2.15 cells, HBV DNA by quantitative blot hybridization; type: cell-based; conditions: read-out: Anti-HCV activity EC50(µM) virion, extracellular virion HBV DNA, nine consecutive daily doses
[4] = Cytotoxicity by neutral red dye uptake in 2.2.15 cells; type: cell-based; conditions: human, 2.2.15 cells (confluent cultures, HBV-replicating)
[5] = system: HCV RNA replicon; test: HCV RNA replicon assay in Huh7 ET cells; type: cell-based; conditions: in comparison to the parent compound 2
[6] = system: HBV mutant rtM204V; test: Intracellular HBV DNA replication assay, transient transfection, rtM204V; type: cell-based; conditions: Hepatitis B virus, 96 h
[7] = system: HBV mutant rtL180M; test: Intracellular HBV DNA replication assay, transient transfection, rtL180M; type: cell-based; conditions: Hepatitis B virus, 96 h
[8] = system: HBV WT; test: Intracellular HBV DNA replication assay, transient transfection, WT; type: cell-based; conditions: Hepatitis B virus, 96 h
[9] = system: HBV mutant rtM204I; test: Intracellular HBV DNA replication assay, transient transfection, rtM204I; type: cell-based; conditions: Hepatitis B virus, 96 h

In the case of “4-amino-7-(2,3-dihydroxy-4-hydroxymethyl-4-cyclopenten-1-yl)-7H-pyrrolo[2,3-d]pyrimidine [Compound 2]”, the IC50 [1] is reported as greater than 100 µM, the IC50 [2] is reported as 22 µM and the EC50 [3] is reported as 0.6 µM.

`Nc1ccn([C@@H]2CS[C@H](CO)O2)c(=O)n1` [Compound 3TC, lamivudine, reference compound] showed an IC50 at 9 days [4] greater than 2000 µM.

For `Nc1ncnc2c1c(F)cn2[C@@H]1C=C(CO)[C@@H](O)[C@H]1O` [Compound 12, (-)-(1R, 2S, 3R)-4-Amino-5-fluoro-7-[2,3-dihydroxy-4-hydroxymethyl-4-cyclopenten-1-yl]-7H-pyrrolo[2,3-d]pyrimidine], the “anti-HCV activity (in words)” value [5] was “devoid of anti-HCV activity”.

With `Nc1ncnc2c1c(I)cn2[C@@H]1C=C(CO)[C@@H](O)[C@H]1O` [Compound 15, (-)-(1R, 2S, 3R)-4-Amino-5-iodo-7-[2,3-dihydroxy-4-hydroxymethyl-4-cyclopenten-1-yl] -7H-pyrrolo[2,3-d] pyrimidine] the IC50 at 9 days [4] was greater than 300 µM.

Work on `C=Cc1cn([C@@H]2C=C(CO)[C@@H](O)[C@H]2O)c2ncnc(N)c12` [Compound 22, (-)-(1R, 2S, 3R)-4-Amino-5-ethenyl-7-[2,3-dihydroxy-4-hydroxymethyl-4-cyclopenten-1-yl]-7H-pyrrolo[2,3-d]pyrimidine] yielded an IC50 at 9 days [4] greater than 300 µM.

`C#Cc1cn([C@@H]2C=C(CO)[C@@H](O)[C@H]2O)c2ncnc(N)c12` [Compound 24, (-)-(1R, 2S, 3R)-4-Amino-5-ethynyl-7-[2,3-dihydroxy-4-hydroxymethyl-4-cyclopenten-1-yl]-7H-pyrrolo[2,3-d]pyrimidine] showed an EC50 [6] of 2.1 µM, an EC50 [7] of 2 µM and an IC50 at 9 days [4] greater than 300 µM. The EC50 [8] was 2.5 µM and the EC50 [9] was 3 µM.
